# Test results published in patent US20040208944A1, “Compositions and methods against inflammatory processes” (priority 2002, published 2004).
# What was measured:
# COX-1 = COX-1 (Homo sapiens, UniProt P23219); assay: Stressgen StressXpress cyclooxygenase activity kit, COX-1; type: biochemical; settings: for COX-1 activity (RLU): vehicle 4115 RLU
# Method: (§1) The Stressgen StressXpress™ cyclooxygenases activity Kit provides a method to measure specifically cyclooxygenases COX-1 and COX-2 in a variety of biological fluids. The kit uses a specific chemiluminescent substrate (aromatic hydrocarbon molecule) to detect the peroxidative activity of COX enzymes. […] Light emission begins immediately and chemiluminescent signal (Relative Luminescence Units—RLU—is measured after 30 minutes (luminometer Tecan). The amount of light emitted is directly proportional to the COX activity.
# HT 29 cells = assay: PGE2 synthesis in HT29 cells treated with α-CH2-γ-butyrolactone with and without TNF-α; type: cell-based, human; settings: for pg PGE2/ml of medium + TNF-α / PGE2 % of control − TNF-α / pg PGE2/ml of medium − TNF-α: 21 h; for pg PGE2/ml of medium + TNF-α / PGE2 % of control + TNF-α: TNF-α 10 ng/ml for 6 h; for PGE2 % of control − TNF-α / pg PGE2/ml of medium − TNF-α: without TNF-α; for PGE2 % of control + TNF-α: relative to methanol control without TNF-α (control + TNF-α = 730)
# Method: To this end, cells were cultured and passed in Mc Coy's 5A medium supplemented with arachidonic acid ([…]) and bovine serum albumin (0.01%). Cells were treated by alpha-methylen-gamma-butyrolactone (dissolved in methanol) at the following doses: 15, 30, 60 microM or by solvent alone during 21 h including or not stimulation with TNF-alpha (10 ng/ml) for 6 h. PGE2 analysis was performed using an Elisa test on a medium sample.
# [1] = test system: COX-2 expression in HT29 cells; assay: Western blot of COX-2 expression in HT 29 cells; type: cell-based, human; settings: FIG. 1
# Method: Western blot analysis: cells lysate were prepared by treating HT 29 cells (treated as above for PGE-2 determinations, i.e. in presence or absence of TNF-alpha and with or without α-CH2-γ-butyrolactone) with lysis buffer (150 mM NaCl, 10 mM Tris HCl pH 8, 1% Tween 20, EDTA pH 8 1 mM, proteases inhibitors, PEFA, (Merck), DETC (Aldrich)). Lysates were sonicated for 5 s, and centrifugated at 10000 g for 5 min. Proteins concentration were estimated by the Bradford method which was standardized using bovine serum albumine.
# Whole cell extracts (25 μg) were boiled in Laemmli sample buffer and resolved by SDS-PAGE on 10% gel using the discontinuous polyacrylamide gel system. Non specific binding sites were blocked by incubating the membrane in 5% dried milk phosphate buffered saline solution containing 0.1% of tween-20 overnight at 4° C. Blots were hybridized in a 1:1000 dilution of a goat polyclonal anti COX-2 and also COX-1 antibody (C-20, Santa Cruz Biotechnology) in 5% milk PBS for 1 h at room temperature followed by 1 h of washing in 1% milk PBS. Subsequently, blots were probed with a secondary donkey anti-goat antibody horseradish peroxidase conjugated. After washing for 1 h, the complex was detected using ECL Western blotting reagents (Amersham)
# COX-2 = target: T1, COX-2 (Homo sapiens, UniProt P35354); assay: Stressgen StressXpress cyclooxygenase activity kit, COX-2; type: biochemical
# T1 sequence (P35354 18-604): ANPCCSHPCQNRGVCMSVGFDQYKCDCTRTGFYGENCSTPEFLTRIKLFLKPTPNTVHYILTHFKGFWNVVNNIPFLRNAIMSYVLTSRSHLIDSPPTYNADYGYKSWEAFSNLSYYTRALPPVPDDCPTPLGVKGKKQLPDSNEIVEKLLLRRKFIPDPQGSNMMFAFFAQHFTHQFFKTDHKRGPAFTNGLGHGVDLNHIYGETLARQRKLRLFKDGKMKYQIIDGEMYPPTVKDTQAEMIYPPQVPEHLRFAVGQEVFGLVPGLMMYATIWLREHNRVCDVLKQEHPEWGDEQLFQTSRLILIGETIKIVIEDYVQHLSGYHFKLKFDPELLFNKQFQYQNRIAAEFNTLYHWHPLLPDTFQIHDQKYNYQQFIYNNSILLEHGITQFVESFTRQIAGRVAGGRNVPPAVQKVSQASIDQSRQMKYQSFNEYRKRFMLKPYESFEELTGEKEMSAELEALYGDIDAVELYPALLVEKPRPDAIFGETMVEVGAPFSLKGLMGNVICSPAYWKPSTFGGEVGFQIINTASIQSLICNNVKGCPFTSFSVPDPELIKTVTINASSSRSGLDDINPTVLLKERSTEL
# Method: as §1
# COX-1, sequence (P23219 24-599): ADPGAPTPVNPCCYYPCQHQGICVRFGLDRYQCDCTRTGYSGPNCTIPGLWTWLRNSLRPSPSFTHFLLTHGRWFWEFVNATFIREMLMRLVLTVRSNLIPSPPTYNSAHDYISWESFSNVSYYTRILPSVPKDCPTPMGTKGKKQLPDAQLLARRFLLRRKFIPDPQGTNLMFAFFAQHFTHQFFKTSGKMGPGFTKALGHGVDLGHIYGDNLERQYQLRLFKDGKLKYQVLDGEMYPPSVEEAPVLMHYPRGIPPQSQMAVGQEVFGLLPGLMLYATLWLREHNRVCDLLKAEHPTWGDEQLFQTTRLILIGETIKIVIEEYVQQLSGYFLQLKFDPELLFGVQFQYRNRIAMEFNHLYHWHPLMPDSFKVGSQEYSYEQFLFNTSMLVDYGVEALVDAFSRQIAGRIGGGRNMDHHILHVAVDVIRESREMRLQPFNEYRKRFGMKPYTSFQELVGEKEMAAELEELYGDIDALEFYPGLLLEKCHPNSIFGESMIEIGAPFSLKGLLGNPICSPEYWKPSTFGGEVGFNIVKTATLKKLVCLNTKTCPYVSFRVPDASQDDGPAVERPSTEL
COX-1 activity % of control (COX-1; 1 mM),COX-1 activity (RLU) (COX-1; 1 mM),Structure (SMILES),COX-1 activity % of control (COX-1; 40 μM),COX-1 activity (RLU) (COX-1; 40 μM),pg PGE2/ml of medium + TNF-α (HT 29 cells; 15 μM) [pg/mL],PGE2 % of control − TNF-α (HT 29 cells; 15 μM),pg PGE2/ml of medium − TNF-α (HT 29 cells; 15 μM) [pg/mL],PGE2 % of control + TNF-α (HT 29 cells; 15 μM),pg PGE2/ml of medium + TNF-α (HT 29 cells; 30 μM) [pg/mL],PGE2 % of control − TNF-α (HT 29 cells; 30 μM),pg PGE2/ml of medium − TNF-α (HT 29 cells; 30 μM) [pg/mL],PGE2 % of control + TNF-α (HT 29 cells; 30 μM),pg PGE2/ml of medium + TNF-α (HT 29 cells; 60 μM) [pg/mL],PGE2 % of control − TNF-α (HT 29 cells; 60 μM),pg PGE2/ml of medium − TNF-α (HT 29 cells; 60 μM) [pg/mL],PGE2 % of control + TNF-α (HT 29 cells; 60 μM),"COX-2 expression (Western blot, in words) [1]",COX-2 activity % of control (COX-2; 40 μM),"COX-2 activity (RLU) (COX-2; 40 μM, vehicle 26450 RLU)",inhibition of COX-2 activity (in words) (COX-2; cyclooxygenase activity kit)
–,–,"C=C1CCOC1=O [α-CH2-γ-butyrolactone, α-methylene-γ-butyrolactone]",117 % of control,4807,13286,108 % of control,2814,512 % of control,9349,76 % of control,1970,360 % of control,1310,14 % of control,1144,50 % of control,inhibition of COX-2 expression,49 % of control,12823,inhibit specifically and with high potency COX-2 activity
99 % of control,4063,"CS(=O)(=O)Nc1ccc([N+](=O)[O-])cc1OC1CCCCC1 [NS-398, reference compound]",–,–,–,–,–,–,–,–,–,–,–,–,–,–,–,–,–,–
